Assay results taken from the supplement of paper PMC10307832.

What was measured:
Test in all cases: relative viability (nuclei count vs DMSO), 5 days (fraction); higher = more cells survive
[1] = compound: Cc1ccc2nc(NCCN)c3ncc(C)n3c2c1 + C[C@@H](Oc1cc(-c2cnn(C3CCNCC3)c2)cnc1N)c1c(Cl)ccc(F)c1Cl [Crizotinib] (partner 1 µM)
Summary of the method: (§1)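 Lung cancer cell lines were seeded in 1536-well plates and dosed by pin tool the next day, with either a single drug or a fixed anchor-drug dose combined with five library-drug doses (not always all listed) spaced in √10 steps. Five days later, one step fixed the cells and stained their nuclei (final 0.05% Triton X-100, 1% formaldehyde, 1 ug/ml Hoechst), and nuclei were counted on 4× images. Relative viability is the nuclei count in treated wells divided by the count in vehicle wells, and each value is the median of duplicate plates.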

[2] = compound: Cc1ccc2nc(NCCN)c3ncc(C)n3c2c1 + C[C@]1(O)C[C@@H](c2nc(-c3ccc4ccc(-c5ccccc5)nc4c3)c3c(N)nccn32)C1 [Linsitinib] (partner 1 µM)
Summary of the method: as §1

[3] = compound: O=C(/C=C/c1ccccc1)NC(NC(=S)Nc1cccc2cccnc12)C(Cl)(Cl)Cl [Salubrinal] + CS(=O)(=O)N1CCN(Cc2cc3nc(-c4cccc5[nH]ncc45)nc(N4CCOCC4)c3s2)CC1 [Pictilisib] (partner 1 µM)
Summary of the method: as §1

[4] = compound: Cc1ccc2nc(NCCN)c3ncc(C)n3c2c1 + COc1cc2c(Oc3ccc(NC(=O)C4(C(=O)Nc5ccc(F)cc5)CC4)cc3F)ccnc2cc1OCCCN1CCOCC1 [Foretinib] (partner 0.25 µM)
Summary of the method: as §1

Cell Line | relative viability ([1]; first compound 0.04 µM) | relative viability ([1]; first compound 0.1265 µM) | relative viability ([1]; first compound 0.4 µM) | relative viability ([1]; first compound 1.265 µM) | relative viability ([1]; first compound 4 µM) | relative viability ([2]; first compound 0.04 µM) | relative viability ([2]; first compound 0.1265 µM) | relative viability ([2]; first compound 0.4 µM) | relative viability ([2]; first compound 1.265 µM) | relative viability ([2]; first compound 4 µM) | relative viability ([3]; first compound 0.08 µM) | relative viability ([3]; first compound 0.8 µM) | relative viability ([3]; first compound 2.53 µM) | relative viability ([3]; first compound 8 µM) | relative viability ([4]; first compound 0.04 µM) | relative viability ([4]; first compound 0.1265 µM) | relative viability ([4]; first compound 0.4 µM) | relative viability ([4]; first compound 1.265 µM) | relative viability ([4]; first compound 4 µM) | relative viability ([3]; first compound 0.253 µM)
NCI-H1792 | 1.03 | 1.03 | 0.946 | 1.01 | 0.905 | 0.627 | 0.543 | 0.484 | 0.463 | 0.405 | 0.324 | 0.246 | 0.287 | 0.243 | – | – | – | – | – | –
ChaGo-K-1 | 1.17 | 1.03 | 1.15 | 0.989 | 0.922 | – | – | – | – | – | 0.73 | 1.21 | 1.01 | 0.827 | 0.897 | 1.03 | 0.884 | 0.82 | 0.895 | 0.625
HCC-44 | 0.851 | 0.827 | 0.768 | 0.828 | 0.835 | 0.869 | 0.632 | 0.652 | 0.625 | 0.69 | 0.592 | 0.767 | 0.649 | 0.493 | – | – | – | – | – | 0.591
NCI-H1623 | – | – | – | – | – | – | – | – | – | – | – | – | – | – | 0.945 | 0.94 | 0.897 | 0.761 | 0.79 | –
NCI-H1395 | – | – | – | – | – | 1 | 0.955 | 1.02 | 1.07 | 0.955 | 0.621 | 0.609 | 0.603 | 0.504 | 0.998 | 0.971 | 0.947 | 0.722 | 0.989 | 0.651
SW 900 | – | – | – | – | – | – | – | – | – | – | – | – | – | – | 1.11 | 1.08 | – | 0.684 | 0.772 | –
